The text below walks through data of patent US6916797B2, “α-arylethylpiperazine derivatives as neurokinin antagonists” (UCB, S.A., priority 2000, dated 2005).

Assay [1] concerns the target T1, NK1 receptors (Homo sapiens, UniProt P25103). Conditions: cited from earlier work.
For assay [2], the system named is verapamil-sensitive L-type Ca2+ binding site. Conditions: cited from earlier work.
The conditions of assay [3]: in vivo; cited from earlier work.
The conditions of assay [4]: after oral administration; cited from earlier work.
The subject of assay [5] is verapamil binding site of the L-type calcium channel. Briefly: Inhibition of [3H]D888 binding to the verapamil binding site of the L-type calcium channel (rat cerebral cortex membranes). Conditions: 10 μmol/l of test substance. The procedure: 200-250 g male Sprague-Dawley rats are sacrificed by decapitation. Cerebral cortices are quickly dissected on ice and homogenized in a 20 mmol/l Tris-HCl (pH 7.4) buffer containing 250 mmol/l sucrose (buffer A). The homogenate is centrifuged at 30,000 g for 15 min at 4° C. The resulting crude membrane pellet is resuspended in a 50 mmol/l Tris-HCl (pH 7.4) buffer and incubated 15 min at 37° C. before being centrifuged at 30,000×g for 15 min at 4° C. After two more washes under the same conditions, the final pellet is resuspended in buffer A at a protein concentration ranging from 15 to 25 mg/ml and stored in liquid nitrogen.
Binding experiments are essentially performed according to Reynolds J. et al., J. Pharmacol. Exp. Ther. (1986), 237, 731-738. (1986) with slight modifications.
Membranes (120-175 μg/assay) are incubated at 25° C. for 60 min in 0.5 ml of a 50 mmol/l Tris-HCl buffer (pH 7.4) containing 2 mmol/l MgCl2, 0.2 to 0.4×10-9 mol/l of [^3H]D888 (85 Ci/mmol; Amersham, Belgium) and 10 μmol/l of the test substance. The non specific binding (NSB) is defined as the residual binding observed in the presence 10 μM verapamil. Membrane-bound and -free radioligands are separated by rapid filtration through glass fiber filters (equivalent to Whatman GF/C or GF/B; VEL, Belgium) presoaked in 0.1% polyethyleneimine to reduce non specific binding. Samples and filters are rinsed by at least 6 ml of 50 mmol/l Tris-HCl (pH 7.4) buffer. […] The radioactivity trapped onto the filters is counted by liquid scintillation in a β-counter.
The inhibition of the radioligand specific binding is calculated as follows: [formula] • where BI and Bo represent the binding observed in the presence and absence of the test substance respectively; and • BNS is the non specific binding.
Data analysis is performed by a computerized non linear curve fitting method using a set of equations describing several binding models assuming competitive interactions between ligands (Weiland G. A. and P. B. Molinoff Life Science (1981), 29, 313-330; Molinoff P. et al. (1981) Life Sci., 29, 427-443).

Assay [6] has as its system isolated rat aorta contracted by 100 mM KCl. Briefly: Effect of compound on isolated rat aorta contracted by 100 mM KCl. Conditions: 10^−5 M; contraction by 100 mM KCl. The protocol: Rat thoracic aorta depolarized by 100 mM KCl develops a contraction induced by an influx of Ca^2+ into the smooth muscle cell. An inhibition of this contraction could predict a Ca^2+ antagonist activity.
The method was adapted from Polster P. et al., J. Pharmacol. Exp. Ther. (1990), 255, 593: rings of thoracic aorta were prepared from male Wistar rats (250-400 g) and mounted under an optimal resting tension of 2 g in 10 ml organ baths containing modified Krebs' solution (NaCl 112 mM, NaHCO3 25 mM, KCl 5 mM, MgSO4 1.2 mM, CaCl2 2.5 mM, KH2PO4 1 mM and glucose 11.5 mM, pH 7.4). The bathing solution was maintained at a temperature of 37° C. and gassed with 95% O2 and 5% CO2. Isometric contractions were measured with a force transducer connected to an amplifier. A computer system was used to control data acquisition and fluid circulation through electrovalves. Drugs were manually injected into the bath.
Each ring was allowed to equilibrate for 60 min in the modified Krebs' solution. […] After obtaining two reproducible control contractions, a 3rd contraction was induced and the test compound was added to the bathing medium for 2 hours. Only preparation in which the contractions were matched were used. Each tissue received only one concentration of the test compound. Appropriate control experiments were conducted in order to test the effect of the solvant.
To normalize data, the change in tension due to the drug was compared to the change of tension due to the solvant and expressed as percentage of the induced relaxation of the initial contraction. Raw data were processed by a computer system and the pD′2 value was calculated following the method of Van Rossum J. M. et al., Arch. Int. Pharmacodyn. Ther. (1963), 143, 299.

Assay [7] has as its target T1, NK1 receptors. Briefly: Binding of [4,5-3H-Leu10] substance P to human recombinant NK1 receptors expressed in CHO cell membranes. Further details: host or cells: CHO cells. Conditions: pIC50 = -log IC50, concentration inhibiting by 50% the specific binding of [4,5-3H] substance P; tested as the free base/salt given in c1.

T1 sequence (P25103 whole entry): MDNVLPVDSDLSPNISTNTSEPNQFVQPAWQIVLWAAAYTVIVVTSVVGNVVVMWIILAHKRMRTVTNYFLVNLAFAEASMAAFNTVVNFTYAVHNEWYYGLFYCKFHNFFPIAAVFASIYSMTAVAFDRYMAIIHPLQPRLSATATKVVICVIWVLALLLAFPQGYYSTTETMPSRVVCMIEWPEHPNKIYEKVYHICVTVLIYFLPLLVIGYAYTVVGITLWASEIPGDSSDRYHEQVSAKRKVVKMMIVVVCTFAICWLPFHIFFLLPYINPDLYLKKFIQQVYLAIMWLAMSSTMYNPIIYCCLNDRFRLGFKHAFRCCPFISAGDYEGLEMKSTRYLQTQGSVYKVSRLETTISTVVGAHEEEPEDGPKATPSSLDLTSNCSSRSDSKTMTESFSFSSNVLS

Turning to `COc1ccccc1CN[C@H]1CCCN[C@H]1c1ccccc1` [CP-99,994], the “selectivity for NK1 receptors with respect to NK2 and NK3 receptors” value at NK1 receptors [1] is recorded as “good NK1 selectivity”. Moreover, the “affinity for / interaction with the verapamil-sensitive L-type Ca2+ binding site” value in assay [2] was “lower interaction”. In addition, in assay [3], the “outcome of first phase II clinical trials for asthma” value is given as “unsuccessful”.

For `COc1ccccc1CN[C@H]1C2CCN(CC2)[C@H]1C(c1ccccc1)c1ccccc1` [CP-96,345], the “selectivity for NK1 receptors with respect to NK2 and NK3 receptors” value at NK1 receptors [1] is given as “good selectivity”. Further, the “affinity for / interaction with the verapamil-sensitive L-type Ca2+ binding site” value in assay [2] is on record as “significant affinity”.

Turning to `COc1ccccc1[C@H](C)C(=O)N1C[C@@H]2[C@H](C1)C(c1ccccc1)(c1ccccc1)CC[C@@]2(O)c1ccccc1OC` [RP-100,893], the “activity in clinical trials for the treatment of migraine” value in assay [4] is “no better than placebo activity”.

As for `COc1ccccc1CC(=N)N1C[C@@H]2C(=O)CCC(c3ccccc3)(c3ccccc3)[C@@H]2C1` [RP-67,580], the NK1 affinity result at NK1 receptors [1] was “some NK1 affinity”.

By IC50 is commonly meant the concentration needed to halve the response being measured. Take `FC(F)(F)c1cc(COC[C@H](c2ccccc2)N2CCN(CCCCc3nnn[nH]3)CC2)cc(C(F)(F)F)c1` [Compound 298, (S)-1-[2-(3,5-Bis-trifluoromethyl-benzyloxy)-1-phenyl-ethyl]-4-[4-(1H-tetrazol-5-yl)-butyl]-piperazine]: the “% inhibition of [3H]D888 binding to the verapamil binding site of the L-type calcium channel” value (“% inhibition … of the L-type calcium channel” below) in assay [5] is “+ (+: inhibition comprised between 20 and 50%)”. Also, the “Result: effect of compound on isolated rat aorta contracted by 100 mM KCl” value (from here on “Result: effect of compound”) in assay [6] is “inactive à 10^−5 M”. At NK1 receptors [7], the IC50 is 15.8 nM.

`O=C(O)CCCN1CCN(C(COCc2cc(C(F)(F)F)cc(C(F)(F)F)c2)c2ccccc2)CC1` (racemic) [Compound 232]: the “% inhibition … of the L-type calcium channel” value in assay [5] was “+ (+: inhibition comprised between 20 and 50%)”. Besides, the “Result: effect of compound” value in assay [6] was “inactive à 10^−5 M”. At NK1 receptors [7], the IC50 is 50.1 nM.

With `O=C(O)CN1CCN([C@H](COCc2cc(C(F)(F)F)cc(C(F)(F)F)c2)c2ccccc2)CC1` [Compound 230], the “% inhibition … of the L-type calcium channel” value in assay [5] is 0 (0: inhibition < 20%). Moreover, the “Result: effect of compound” value in assay [6] was “inactive à 10^−5 M”. At NK1 receptors [7], the IC50 is 50.1 nM.

For the compound `O=C(O)COCCN1CCN([C@H](COCc2cc(C(F)(F)F)cc(C(F)(F)F)c2)c2ccccc2)CC1` [Compound 236], the “% inhibition … of the L-type calcium channel” value in assay [5] is given as 0 (0: inhibition < 20%). In addition, the “Result: effect of compound” value in assay [6] is “inactive à 10^−5 M”. The IC50 at NK1 receptors [7] was 79.4 nM.

Turning to `O=C(O)C1CCC(N2CCN(C(COCc3cc(C(F)(F)F)cc(C(F)(F)F)c3)c3ccccc3)CC2)CC1` (stereo not drawn) [Compound 312, cis- or trans-4-{4-[2-(3,5-Bis-trifluoromethyl-benzyloxy)-1-phenyl-ethyl]-piperazin-1-yl}-cyclohexanecarboxylic acid], the “% inhibition … of the L-type calcium channel” value in assay [5] was 0 (0: inhibition < 20%). Moreover, the “Result: effect of compound” value in assay [6] is “inactive à 10^−5 M”. On NK1 receptors [7], the IC50 was 25.1 nM.
